Source: patent US9579384B2, “Method of treating bendamustine-responsive conditions in patients requiring reduced volumes for administration” (Eagle Pharmaceuticals, Inc., priority 2012, dated 2017)
Where a name gives a salt, the structure may show the parent alone.

Legend:
[1] = Measured solubility of bendamustine HCl in the diluent/solubilizer combination at room temperature; format: physicochemical; conditions: aqueous with cosolvent or surfactant or cyclodextrin
Experimental: The solubility of the diluent/solubilizer combination far exceeded the bendamustine concentration, thus assuring the avoidance of precipitated drug prior to or during administration. As will be appreciated by those of ordinary skill, as the concentration of solubilizers increases with respect to the total volume in small administration doses, the solubility of the bendamustine is maintained.
Bendamustine formulations containing the above ingredients are capable of delivering approximately 360 mg of the drug as the HCl salt in volumes of pharmaceutically acceptable diluent ranging from about 120 ml down to about 15 ml.

[2] = Observation of precipitation in the IV fluid during administration to patient; format: physicochemical
Experimental: In this example, a patient diagnosed with chronic lymphocytic leukemia (CLL) and having chronic kidney disease (GFR<30 ml/min/1.73 m^2) is begun on a treatment protocol with bendamustine. In particular, the patient is administered 360 mg of bendamustine as part of an approximately 114.4 ml infusion on days 1 and 2 of a 28 day cycle. The intravenous formulation is prepared by drawing up 14.4 ml of an RTU (ready to use) liquid containing bendamustine HCl 25 mg/ml, PG 103.2 mg/ml, PEG 1013.4 mg/ml, monothioglycerol 5 mg/ml and 0.08 mg/ml NaOH and mixing it into a 100 ml bag containing 0.9% NaCl. The final bendamustine concentration for the IV fluid is 3.15 mg/ml. The infusion is administered to the patient in less than 15 minutes.
The process of Example 1 is repeated except that the IV infusion volume is approximately 64.4 ml. The same 14.4 ml of an RTU (ready to use) liquid containing bendamustine HCl 25 mg/ml, PG 103.2 mg/ml, PEG 1013.4 mg/ml, monothioglycerol 5 mg/ml and 0.08 mg/ml NaOH is used and it is mixed into a 50 ml bag containing 0.9% NaCl. The final bendamustine concentration for the IV fluid is 5.59 mg/ml. The infusion is administered to the patient in less than 10 minutes.

In the case of `Cn1c(CCCC(=O)O)nc2cc(N(CCCl)CCCl)ccc21` [bendamustine HCl, Bendamustine HCl], the solubility ([1]; half normal saline/dextrose diluent/solubilizer combination, 50 ml half normal saline/dextrose + 1 ml of 25 mg/ml bendamustine HCl and solubilizers (PG, PEG 400)) is reported as 14.2 mg/mL, the solubility ([1]; normal saline diluent/solubilizer combination, 50 ml normal saline + 1 ml of 25 mg/ml bendamustine HCl and solubilizers (PG, PEG 400)) is reported as 10.5 mg/mL and the “precipitation of bendamustine in the IV fluid during administration” value ([2]; 14.4 ml RTU liquid (25 mg/ml) in 50 ml 0.9% NaCl, final 5.59 mg/ml, infusion in less than 10 minutes) is reported as “No precipitated bendamustine is observed”. For the same molecule, the “precipitation of bendamustine in the IV fluid during administration” value ([2]; 14.4 ml RTU liquid (25 mg/ml) in 100 ml 0.9% NaCl, final 3.15 mg/ml, infusion in less than 15 minutes) was “No precipitated bendamustine is observed”.
